Test results taken from patent US12201599B2, “Compositions and methods for inhibiting blood cancer cell growth” (University of New Brunswick, priority 2017, dated 2025).

Assays:
[1] = test system: Cyclin D3; experiment: Immunoblot of cyclin D3 protein levels in KMM1 cells; assay type: cell-based, human; conditions: 48 hours; for effect on cyclin D3 levels: KMM1, 1, 5 and 25 μM; for cyclin D3 protein levels in comparison with CAPE: KMM1, 25 μM
[2] = test system: IRF4; experiment: Immunoblot of IRF4 protein expression in KMM1 cells
Description: (§1) Total protein extract was obtained from KMM1 and KMS-11 cells treated with CAPE and its closely related analogues and concentration of proteins determined by the Bicinchoninic acid assay (BCA) method. Protein samples were then fractionated by sodium dodecyl sulfate polyacrylamide gel electrophoresis (SDS PAGE) and transferred electrophoretically to a polyvinylidene (PVDF) membrane. Blots were then blocked with 5% nonfat dry milk in tris(hydroxymethyl)aminomethane-buffered saline-tween (TBS-T) for 1 hour and then incubated overnight with goat polyclonal anti-IRF4 antibody; rabbit polyclonal anti-OCT2 antibody, rabbit polyclonal anti-Bob1 antibody (Santa Cruz Biotechnology, Santa Cruz, CA); mouse polyclonal anti-Cyclin D3 (Cell Signaling Technology, Whitby, ON) and mouse monoclonal anti-beta tubulin antibody (Abcam, Cambridge, MA). Detection of protein in PVDF membrane was performed using the chemiluminescence kit (Bio-Rad Laboratories, Hercules, CA).
KMM1 cells were treated with 1, 5 and 25 μM of CAPE and its closely related analogues for 48 hours, cells were then harvested and proteins were extracted. 15 μg protein lysates were separated on a 4-20% gradient gel and then transferred to the PVDF membrane. The membrane was probed for IRF4 protein expression using affinity purified goat polyclonal antibody. Beta-actin was used as protein loading control.

[3] = test system: OCT2; experiment: Immunoblot of OCT2 protein levels in KMM1 cells; assay type: cell-based, human; conditions: KMM1, 25 μM, 48 hours
[4] = test system: normal human bone marrow mononuclear cells; experiment: Cell viability of normal mononuclear cells after 48 hr, Prestoblue cell viability assay; assay type: cell-based; conditions: for Normal Bone Marrow Mononuclear Cell Viability (%) Average: 48 hr; for inhibition of cell growth of normal human bone marrow cells (in words): 1, 10, 25, 50 μM, 48 hrs
Description: Cell Viability of Normal Mononuclear Cells after 48 hr CAPE and GL8 Treatment, Determined by Prestoblue Cell Viability Assay.

[5] = test system: KMM1 lenalidomide non-responsive myeloma cell line; experiment: Combination treatment of lenalidomide and CAPE analogues, KMM1 cell viability after 72 hr; conditions: Homo sapiens
[6] = test system: KMM1 myeloma cells; experiment: KMM1 myeloma cell growth inhibition, PrestoBlue cell viability assay, 48 hours; assay type: cell-based, human
Experimental: Human myeloma cell line KMM1 was purchased from the Japanese Collection of Research Bioresources Cell Bank (JCBR, Japan). KMS-11 cells were a kind gift from Dr. David Hoskin's Laboratory, […], Canada. Myeloma cells were grown in RPMI-1640 media (Sigma Aldrich, USA) supplemented with 5% heat inactivated FBS (Gibco), […] L-glutamine (Gibco), 5 mM HEPES and 1% Penstrep (Sigma Aldrich, USA) in a 5% CO2 incubator at 37° C. Cell lines were tested regularly for mycoplasma and kept free of contamination. All other chemicals were obtained from Sigma Aldrich, USA. Myeloma cells were seeded in 96 well plates at a density of 10^4 cells/well in appropriate cell media. Following overnight incubation at 37° C., MM cells were treated for 48 hours with varying concentrations of CAPE and its closely related analogues and cell viability was determined by PrestoBlue assay (Invitrogen, ON) according to the manufacturer's protocol. […] Myeloma cell growth inhibition was determined by presto blue cell viability assay (FIG. 2). […] At 5 μM, GL8 inhibited 49.9±2.9%, while CAPE inhibited the growth of 7.3±1% myeloma cells only (P=0.000017); At 10 μM, GL8 inhibited 62.3±2%, while CAPE inhibited the growth of 25.6±5% (P=0.00026).

[7] = test system: Bob-1; experiment: Immunoblot of Bob-1 protein levels in KMM1 cells; assay type: cell-based, human; conditions: KMM1, 25 μM, 48 hours
[8] = test system: OCI-Ly3 human lymphoma cell line; experiment: Lymphoma cell growth inhibition in lenalidomide-insensitive OCI-Ly3; assay type: cell-based
[9] = test system: Ikaros; experiment: Immunoblot of cereblon pathway protein Ikaros in KMM1 cells; assay type: cell-based, human; conditions: KMM1 (lenalidomide resistant)
Description: as §1

[10] = test system: IRF4; experiment: Immunoblot of IRF4 in lenalidomide-responsive KMS-11 cells; assay type: cell-based, human; conditions: KMS-11 (lenalidomide responsive)
Description: as §1

[11] = test system: Ikaros; experiment: Immunoblot of Ikaros in lenalidomide-responsive KMS-11 cells; assay type: cell-based, human; conditions: KMS-11, 50 μM
Description: as §1

[12] = test system: cleaved caspase-3; experiment: Immunoblot of cleaved caspase-3 in KMM1 cells; assay type: cell-based, human; conditions: KMM1, 25 μM, 48 hr
Experimental: Furthermore, a noticeable increase in cleaved caspase levels in KMM1 cells treated with 25 μM GL8 and MT30 was observed. In comparison with 25 μM CAPE, a 3.2 fold increase in cleaved caspase-3 by MT30 and a 2.9 fold increase by 25 μM of GL8 were observed (FIG. 5).

[13] = test system: MMIR human myeloma cell line; experiment: Cell growth inhibition effect of lenalidomide on MMIR myeloma cells; assay type: cell-based
[14] = test system: MM1S human myeloma cell line; experiment: Cell growth inhibition effect of lenalidomide on MM1S myeloma cells; assay type: cell-based
[15] = KMM-1, read-out: % KMM1 Cell viability, single compound treatment
[16] = KMM-1, 72 h, read-out: % KMM1 Cell viability after 72 hr Lenalidomide Treatment

## O=C(O)/C=C/c1ccc(O)c(O)c1 [CA, Caffeic acid]
[1]
  effect on cyclin D3 levels: did not have any effect

## O=C(/C=C/c1ccc(O)c(O)c1)OCCc1ccccc1 [CAPE, Caffeic acid (3,4-dihydroxycinnamic acid) phenethyl ester]
[2]; KMM1, 25 μM, 48 hours
  decrease of IRF4 protein expression level: 26%
[3]
  OCT2 protein levels: downregulated
[4]; 1 μM
  Normal Bone Marrow Mononuclear Cell Viability (%) Average: 99.3%
[4]; 10 μM
  Normal Bone Marrow Mononuclear Cell Viability (%) Average: 103.4%
[4]; 25 μM
  Normal Bone Marrow Mononuclear Cell Viability (%) Average: 117.7%
[4]; 50 μM
  Normal Bone Marrow Mononuclear Cell Viability (%) Average: 122.6%
[4]
  inhibition of cell growth of normal human bone marrow cells (in words): neither GL8 nor CAPE at the following concentrations inhibited
[5]; [15]
  viability at 5 µM: 51.8%
  viability at 25 µM: 36%
[6]; Homo sapiens, KMM-1, KMM1, 48 hours, 1 μM, 5 μM and 10 μM
  inhibition at 1 µM: < 30%
[6]; Homo sapiens, KMM-1, KMM1, 48 hours, 25 μM
  inhibition at 25 µM: 38.7 ± 4%
[6]; Homo sapiens, KMM-1, KMM1, 48 hours, 50 μM
  inhibition at 50 µM: 59.6 ± 2%
[7]
  Bob-1 protein levels: downregulated
[8]; Homo sapiens, OCI-Ly3, 5 μM
  inhibition at 5 µM: 7.3 ± 1%
[8]; Homo sapiens, OCI-Ly3, 10 μM
  inhibition at 10 µM: 25.6 ± 5%

## O=C(/C=C/c1ccc(O)c(O)c1)NCCc1ccccc1 [D19]
[1]
  effect on cyclin D3 levels: did not have any effect

## O=C(/C=C/c1ccc(O)c(O)c1)OCCCc1ccccc1 [GL8]
[2]; KMM1 (lenalidomide resistant), 50 μM
  levels of IRF4 in comparison with 50 μM CAPE: significantly decreased
[2]; KMM1, 25 μM, 48 hours
  decrease of IRF4 protein expression level: 62%
[3]
  OCT2 protein levels: downregulated
[9]
  levels of Ikaros in comparison with 50 μM CAPE: significantly decreased
[10]; 50 μM
  levels of IRF4 in comparison with 50 μM CAPE: significantly decreased
[4]; 1 μM
  Normal Bone Marrow Mononuclear Cell Viability (%) Average: 110.0%
[4]; 10 μM
  Normal Bone Marrow Mononuclear Cell Viability (%) Average: 109.2%
[4]; 25 μM
  Normal Bone Marrow Mononuclear Cell Viability (%) Average: 110.3%
[4]; 50 μM
  Normal Bone Marrow Mononuclear Cell Viability (%) Average: 101.9%
[4]
  inhibition of cell growth of normal human bone marrow cells (in words): neither GL8 nor CAPE at the following concentrations inhibited
[1]
  cyclin D3 protein levels in comparison with CAPE: decreased cyclin D3 protein levels dramatically
  effect on cyclin D3 levels: decrease cyclin D3 levels in a dose-dependent manner
[11]
  levels of Ikaros in comparison with 50 μM CAPE: significantly decreased
[12]
  increase in cleaved caspase-3 in comparison with 25 μM CAPE: 2.9 fold
[6]; KMM1
  myeloma cell growth inhibition (in words): significant myeloma cell growth inhibition
[6]; KMM1, 48 hours, 25 μM
  myeloma cell growth inhibition: 58.3±13%
[6]; KMM1, 48 hours, 50 μM
  myeloma cell growth inhibition: 80±5%
[7]
  Bob-1 protein levels: downregulated
[8]; OCI-Ly3, 5 μM
  lymphoma cell growth inhibition: 49.9±2.9%
[8]; OCI-Ly3, 10 μM
  lymphoma cell growth inhibition: 62.3±2%

## Nc1cccc2c1CN(C1CCC(=O)NC1=O)C2=O (stereo not shown) [Lenalidomide]
[2]; KMM1 (lenalidomide resistant), 10 μM, 25 μM and 50 μM
  effect on IRF4 protein level: Neither the clinically relevant concentration of 10 μM lenalidomide (Greenberg et al., 2013) nor higher concentrations of lenalidomide (25 μM and 50 μM) tested had any effect
[13]
  cell growth inhibition effect (sensitivity in words): moderately sensitive
[10]; 10 μM, 25 μM and 50 μM
  effect on IRF4 protein level: did not alter
[14]
  cell growth inhibition effect (sensitivity in words): sensitive
[5]; [16]
  viability at 0.0001 µM: 99%
  viability at 0.0005 µM: 97%
  viability at 0.001 µM: 97%
  viability at 0.005 µM: 96%
  viability at 0.01 µM: 97%
  viability at 0.1 µM: 85%
  viability at 1 µM: 80%
  viability at 10 µM: 80%
  viability at 100 µM: 78%
[6]; KMM1
  cell growth inhibition effect (sensitivity in words): insensitive
[8]; OCI-Ly3
  cell growth inhibition effect (sensitivity in words): insensitive

## O=C(/C=C/c1ccc(O)c(O)c1)OCCC1CCCCC1 [MT30]
[2]; KMM1, 25 μM, 48 hours
  IRF4 protein expression (in words): significantly down regulated
[3]
  OCT2 protein levels: downregulated
[1]
  cyclin D3 protein levels in comparison with CAPE: decreased cyclin D3 protein levels dramatically
[12]
  increase in cleaved caspase-3 in comparison with 25 μM CAPE: 3.2 fold
[6]; KMM1
  myeloma cell growth inhibition (in words): significant myeloma cell growth inhibition
[7]
  Bob-1 protein levels: downregulated
